Experiments:
APPSwe/PS1 mice = assay: T-water maze; assay type: in vivo, mouse; conditions: for spatial memory / behaviour in T water maze compared to non-treated mice: twelve weekly injections, CRX 20 μg i.p., 3D MPL 50 μg i.p., AS01B 1/10th human dose i.m.; for T maze reversal test compared with group 1 (PBS): 12x weekly
Procedure: Five groups of APPSwe/PS1 mice have received one a week for a period of 12 weeks the following treatment: • Gr1: APPSwe/PS1+NaCl 0.9% n(=20), i.p. injections • Gr4: APPSwe/PS1+CRX527 (20 μg/mouse, 130 μl, n=10), i.p. injections • Gr5: APPSwe/PS1+CRX601 (20 μg/mouse, 130 μl, n=10), i.p. injections • Gr6: APPSwe/PS1+3D MPL (50 μg/mouse, 130 μl, n=10), i.p. injections • Gr8 APPSwe/PS1+AS15 • Gr9: APPSwe/PS1+AS01B ( 1/10th of human dose μg/kg, 50 μl, n=10), i.m. injections
Mice were tested during the “light on” phase of the day. Behavioral experimenter was blinded to the genetic and treatment status of animals. To assess hippocampal-dependent spatial learning and memory, mice were trained in the T-water maze task. In this paradigm, we evaluate the mouse's ability to remember the spatial location of submerged platform. The T-maze apparatus (length of stem, 64 cm; length of arms, 30 cm; width, 12 cm; height of walls, 16 cm) was made of clear fiberglass and filled with water (23±1° C.) at a height of 12 cm. A platform (11×11 cm) was placed at the end of the target arm and was submerged 1 cm below the surface. The acquisition phase allows to evaluate animals for left-right spatial learning. During the first two trials, platforms were placed on each arms of the maze to test the spontaneous turning preference of the mouse. After these two trials, the least chosen arm was reinforced by the escape platform. The mice were placed in the stem of the T-maze and choose to swim either left or right until they found the submerged platform and escape to it, to a maximum of 60 s. After reaching the platform, the mice remained on it for 20 s and then were immediately placed back in the maze. […] Repeated trials were presented on the same day up to a maximum of 48 trials. A rest period of at least 10-15 min intervened between each block of 10 trials. A mouse was considered to have learned the task when it made no errors in a block of five consecutive trials. The reversal learning phase was then conducted 48 h later.
During this phase, the same protocol was repeated, except that the mice were trained to find the escape platform on the opposite side to that on which they had learned on acquisition phase. The number of trials to reach the criterion (five of five correct choices made on consecutive trials) was measured as well as the latency to find the escape platform.
Further experiments were carried out using the following groups.

CD11b+ monocytes = assay: Peripheral blood CD11b+ monocyte number by flow cytometry after single injection; assay type: in vivo, C57BL/6 mice; conditions: for CD11b+ monocyte number in peripheral blood: 24 hrs after single injection; for circulating monocytes in peripheral blood: intramuscular injection; for circulating monocytes in peripheral blood / total monocytes in the peripheral blood: 24 hrs, normal count 5%; for total monocytes in the peripheral blood: intraperitoneal route
From the text: Monocytes are the peripheral blood precursor cells of microglia (Rezaie, P., et al 1999. Microglia in the human fetal spinal cord—patterns of distribution, morphology and phenotype. Brain Res. Dev. Brain Res. 115:71-81: Mildner et al Nat Neurosci. 2007 December; 10(12):1544-53. Epub 2007 Nov. 18. PubMed PMID: 18026096.). During embryonic development, microglia populate the CNS from myeloid lineage precursors in the bone marrow and these cells are circulating in the peripheral blood before becoming macrophages in their infiltrating tissues, such as microglia are for the brain. Markers such as CD11b and Ly6C are immunologicals markers that are present on peripheral blood monocytes and persist when they are infiltrating the brain (Mildner et al., 2007 infra, Lebson L, et al Trafficking CD11b-positive blood cells deliver therapeutic genes to the brain ofamyloid-depositing transgenic mice. J Neurosci. 2010 Jul. 21; 30(29):9651-8. PubMed PMID: 20660248.). To investigate whether 3D MPL containing adjuvants and s are contributing to induce the number of monocytes in the peripheral blood, we have performed a single injection of those molecules and measure after 24 hrs (post injection) the CD11b+ monocytes number by a flow cytometry method (Mildner A, et al Microglia in the adult brain arise from Ly-6ChiCCR2+ monocytes only under defined host conditions. Nat Neurosci. 2007 December; 10(12):1544-53. Epub 2007 Nov. 18. PubMed PMID: 18026096). As described in FIG. 3, we are showing an increase of CD11b+ monocyte number having that phenotypic composition of markers :CD11b+, lineage cocktail negative (CD3-, B220-, NK1.1-,Ly6C-) after the injection of 3D MPL or AS15 or AS01B or CRX527 or CRX601. Comparing to a normal monocyte number count in the peripheral blood, which is 5% whereas the intramuscular (i.m.) injection of AS01B, and AS15 are showing an increase of the number of circulating monocytes to up to 20%. Moreover, the injection of 3D MPL or CRX601 or CRX601 using the intraperitoneal route is also showing a 22% of total monocytes in the peripheral blood.
Peripheral blood was drawn from C57BL/6 mice via cardiac puncture with lithium-heparin as anticoagulant, 24-Hour after injection of the TLR adjuvants. Red blood cell lysis was performed twice on pooled blood with Ammonium Chloride-based Buffer (Sigma, Steinheim, Germany) and cells were counted with the EasyCount™ System (Immunicon). After one washing step, 500,000 cells were incubated with Rat anti-Mouse CD16/CD32 (BD Fc Block™ by BD Biosciences) for 10 min. on ice and cells were further incubated for 30 min. with a combination of the following directly conjugated antibodies at their pre-determined optimal concentration as described by Mildner et al., 2007): PerCP labeled-Streptavidin, PE-Hamster anti-Mouse CD3, Rat anti-Mouse CD45R/B220, Rat anti-Mouse Ly-6G, Mouse anti-Mouse NK1.1 APC-conjugated Rat anti-Mouse CD11b, PE-Cy7-conjugated Hamster anti-Mouse CD11c, FITC-Rat Anti-Mouse Ly-6C (all from BD Biosciences) and Pacific Blue™ Rat anti-Mouse CD62L (BioLegend, San Diego, Calif.). Cells were finally washed three times and fixed for 15 min. with a 2% paraformaldehyde solution in PBS. Fluorescence minus one (FMO) controls were always included in the assays for fluorescent compensation setting.
Samples were acquired on a flow cytometer (BD FACSCanto II) and data analyzed with the FACSDiva software (BD Biosciences).
Monocytes were identified by their Side/Forward scatter properties and gated as CD3-/CD45R/B220-/Ly-6G-/NK1.1-(Lineage-)/CD11b+ cells. CD11b+ monocytes frequency was reported as a percentage of the total cells excluding debris.
24-Hour after injection of the TLR adjuvants, peripheral blood was drawn from C57BL/6 mice via cardiac puncture with lithium-heparin as anticoagulant. Red blood cell lysis was performed twice on pooled blood with Ammonium Chloride-based Buffer (Sigma, Steinheim, Germany) and cells were counted with the EasyCount™ System (Immunicon). […]

Compound	spatial memory / behaviour in T water maze compared to non-treated mice (APPSwe/PS1 mice)	spatial memory / behaviour in T water maze compared to non-treated mice (APPSwe/PS1 mice; listed as CRX 527)	CD11b+ monocyte number in peripheral blood (CD11b+ monocytes)	T maze reversal test compared with group 1 (PBS) (APPSwe/PS1 mice; group 9: intra peritoneal 50 ug per mouse)	T maze reversal test compared with group 1 (PBS) (APPSwe/PS1 mice; group 10: i.m. 5 ug per mouse)	spatial memory / behaviour in T water maze compared to non-treated mice (APPSwe/PS1 mice; listed as 3D-MPL)	CD11b+ monocyte in the peripheral blood (CD11b+ monocytes; 5 μg dose i.m., 24 hours)	peripheral blood monocyte count (CD11b+ monocytes; 50 μg dose i.m., 24 hours)	circulating monocytes in peripheral blood (CD11b+ monocytes)	total monocytes in the peripheral blood (CD11b+ monocytes)	T maze reversal test compared with group 1 (PBS) (APPSwe/PS1 mice; group 3: i.m. 2 ug per mouse)	spatial memory / behaviour in T water maze compared to non-treated mice (APPSwe/PS1 mice; listed as CRX 601)	monocyte count effect (CD11b+ monocytes; 20 μg dose i.m.)	amount enough to trigger an increase of the monocyte count (CD11b+ monocytes; single i.m. injection, six doses 0.2 to 20 μg)
CCCCCCCCCCC[C@H](CC(=O)N[C@H]1[C@H](OC[C@H](NC(=O)C[C@@H](CCCCCCCCCCC)OC(=O)CCCCCCCCC)C(=O)O)O[C@H](CO)[C@@H](OP(=O)(O)O)[C@@H]1OC(=O)C[C@@H](CCCCCCCCCCC)OC(=O)CCCCCCCCC)OC(=O)CCCCCCCCC [CRX527]	spatial memory improvement	significant improvements	increase	–	–	–	–	–	–	–	–	–	–	–
3-O-desacyl-4′-monophosphoryl lipid A [3D MPL]	spatial memory improvement	–	increase	significantly improved	significantly improved	significant improvements	double increase	drop	≤ 13%	22%	–	–	–	–
CCCCCCCCCCC[C@H](CC(=O)N[C@H]1[C@H](OC[C@H](NC(=O)C[C@@H](CCCCCCCCCCC)OCCCCCCCCCC)C(=O)O)O[C@H](CO)[C@@H](OP(=O)(O)O)[C@@H]1OC(=O)C[C@@H](CCCCCCCCCCC)OCCCCCCCCCC)OCCCCCCCCCC [CRX601]	spatial memory improvement	–	increase	–	–	–	–	–	up to 12%	22%	significantly improved	significant improvements	down modulated	1 µg

From patent publication US20130216614A1, “IMMUNOGENIC COMPOSITIONS AND METHODS FOR TREATING NUEROLOGIC DISORDERS” (Glaxosmithkline Biologicals S.A., priority 2010, published 2013)
